One data set concerns NMRI mice. In words: Mouse 6-Hz (44 mA) psychomotor seizure model. Type of data set: in vivo. The following applies: for mean seizure duration / mice protected against induced seizures: 30 min before electrical stimulation. The text has this:
Although the zebrafish model has a high degree of genetic, physiological and pharmacological conservation^13, it is more distinct from humans than mammals. Therefore, we were interested to see if the observed antiseizure properties of azaspirofuran A and pseurotin A2 would translate to a rodent model. The mouse 6-Hz (44 mA) psychomotor seizure model was chosen, because it can detect compounds with novel antiseizure mechanisms and with potential against drug-resistant seizures [Barton et al. (2001) Epilepsy Res 47, 217-227; Wilcox et al. (2013) Epilepsia 54 S4, 24-34]. In this model drug-resistant focal impaired awareness seizures [Fisher et al. (2017) Epilepsia 58, 531-542], previously referred to as complex partial or psychomotor seizures [Holcomb and Dean (2011) Psychomotor Seizures, In Encyclopedia of Child Behavior and Development (Goldstein, S., and Naglieri, J. A., Eds.), pp 1191-1192, Springer US, Boston, Mass.], are induced by low frequency, long duration corneal electrical stimulation (6 Hz, 0.2 ms rectangular pulse width, 3 s duration, 44 mA) and are characterized by stun, twitching of the vibrissae, forelimb clonus, and Straub tail. […] Stimulated mice with a seizure duration shorter than 27 seconds were thus considered to be protected. […] Besides, this study provides another example of the translation of results from zebrafish to rodent seizure models.
Experimental procedure was described in Copmans et al. (2018) Neurochem. Int. 112, 124-133. before Buenafe et al. cited above; Orellana-Paucar cited above. In brief, NMRI mice (average weight 28 g, range 23-32 g) were randomly divided into control and treatment groups (n=5-10). 50 μL (injection volume was adjusted to the individual weight) of VHC (PEG200:DMSO:water; 0.25:0.25:0.5) or treatment (an ASD or test compound dissolved in VHC) was i.p. injected in mice and after 30 or 120 (in case of phenytoin, as reported by Barton et al. cited above) min psychomotor seizures were induced by low frequency, long duration corneal electrical stimulation (6 Hz, 0.2 ms rectangular pulse width, 3 s duration, 44 mA) using an ECT Unit 5780 (Ugo Basile, Comerio, Italy). Mice were manually restrained and a drop of ocular anesthetic (0.5% lidocaine) was applied to the corneas before stimulation. Following electrical current stimulation, the mouse was released in a transparent cage for behavioral observation, which was video-recorded. […] In addition, facial and mouth jerking as well as head nodding were observed occasionally. Mice displaying normal exploratory and locomotion behavior within a time period of 26 seconds were considered to be protected against the induced psychomotor seizures. Seizure durations were measured during the experiment by experienced researchers, familiar with the different seizure behaviors. In addition, seizure durations were determined by blinded video analysis to confirm or correct the initial observations. Data are expressed as mean±SD.

A short description of data set [1]: Parallel artificial membrane permeability assay (PAMPA). The format is in vitro ADME. The note with it: for Permeability: 10 μM, 5 h, RT. The procedure: The Gentest Pre-coated PAMPA Plate System (Corning) was used to perform the permeability assays. The 96 well filter plate, pre-coated with lipids, was used as the permeation acceptor and a matching 96 well receiver plate was used as the permeation donor. Compound solutions were prepared by diluting 10 mM DMSO stock solutions in PBS with a final concentration at 10 μM. The compound solutions were added to the wells (300 μL/well) of the receiver plate and PBS was added to the wells (200 μL/well) of the pre-coated filter plate. The filter plate was then coupled with the receiver plate and the plate assembly was incubated at RT without agitation for 5 h. Next, the plates were separated and 50 μL solution from each well of both the filter plate and the receiver plate was transferred to a vial with 150 μL acetonitrile and centrifuged at 13300 rpm for 10 min at 4° C. The supernatant was diluted in a solution water/acetonitrile (50/50). The final concentration of compounds in both donor wells and acceptor wells was analyzed by LC-MS/MS. Permeability of the compounds was calculated using the following equation:
Permeability (cm/s): Pe={−ln[1−CA(t)/Ceq]}/[A*(1/VD+1/VA)*t]}
A=filter area (0.3 cm2), VD=donor well volume (0.3 mL), VA=acceptor well volume (0.2 mL), t=incubation time (s), CA(t)=compound concentration in acceptor well at time t, CD(t)=compound concentration in donor well at time t, and Ceq=[CD(t)*VD+CA(t)*VA]/(VD+VA)]
For orientation: The PAMPA barrier holds no transporters, so it reflects passive diffusion.

Take `CCc1ccc(C2=C(C)C(=O)C3(O2)C(=O)NC(OC)(C(=O)c2ccccc2)C3O)o1` (stereo not drawn) [azaspirofuran A]: in the data set with NMRI mice (40 mg/kg i.p.), the mean seizure duration is 24 s and the “mice protected against induced seizures” value is listed as 5 out of 7. In addition, the antiseizure activity result in the data set with NMRI mice (20 and 10 mg/kg i.p.) is given as “no significant effects”. In data set [1], the “Permeability, rating” value was “High” and the Permeability came to 18.64 ×10⁻⁶ cm/s.

Turning to `CC/C=C\[C@H](O)[C@H](O)C1=C(C)C(=O)[C@]2(O1)C(=O)N[C@](OC)(C(=O)c1ccccc1)[C@H]2O` [pseurotin A2], the antiseizure activity entry with NMRI mice (2.5 mg/kg i.p.) is “inactive”. In the data set on NMRI mice (10 mg/kg i.p.), the mean seizure duration came out at 27 s and the “mice protected against induced seizures” value is reported as 5 out of 6. Further, in the data set on NMRI mice (40 mg/kg i.p.), the mean seizure duration is 26 s and the “mice protected against induced seizures” value is reported as 4 out of 7. In data set [1], the “Permeability, rating” value was “Low” and the Permeability turned out to be 0.05 ×10⁻⁶ cm/s.

The values above are taken from patent US20200253929A1, “TREATMENT OF EPILEPSY” (priority 2017, published 2020).
